# From paper PMC13462928 (Nature Communications, 2026)
# Read-outs that look alike come from different tables or passages of the source.
# Columns and labels:
# [1] = biological target: NUDT5 and the respective E3 ligase (Homo sapiens, UniProt P40337+Q9UKK9); experiment: NanoBRET ternary complex formation assay NUDT5 and the respective E3 ligase (VHL or CRBN) in HEK293 cells; type: cell-based; conditions: for Ternary complex formation below 1 µM (4 h): HEK293, 4 h; for Ternary complex formation below 1 µM (20 h): HEK293, 20 h
# Description: NanoBRET ternary complex assays were performed following the manufacturer’s instructions (Promega). […] After 4 h or 20 h of incubation, a mix of substrate in assay medium was added to each well. Donor and acceptor signals were measured in a PHERAstar FSX or FS plate reader and analyzed by GraphPad Prism (v.9 or v.10). The acceptor/donor ratio was calculated, the no ligand background signal was subtracted, and multiplied by 1000 to yield mBRET units. Data were then normalized to DMSO.
# NUDT5 [2] = biological target: NUDT5 (Homo sapiens, UniProt Q9UKK9); experiment: NanoBRET NUDT5 target engagement (TE) assay in HEK293 cells; type: cell-based; set-up: expressed in transfected cells; host or cells: HEK293; conditions: HEK293, 4 h
# NUDT5 [3] = biological target: NUDT5 (Homo sapiens, UniProt Q96SW2+Q9UKK9); experiment: Western blot NUDT5 degradation in HEK293 cells; type: cell-based; conditions: 20 h, Western blot
# Description: Pellets were lysed on ice using RIPA buffer (25 mM Tris (pH 7.5), 150 mM NaCl, 1% Igepal, 1% SDS, 0.1% SDC, 1x protease inhibitor (Roche, cOmplete mini, 11836170001), 1x phosphatase (Thermo Scientific, Halt, 78429), 0.1% benzonase (Merck, E1014-5KU)), incubated for 15 min and then centrifuged for 20 min at 4 °C at maximum speed in a table-top centrifuge. […] Membranes were blocked with 6% milk in PBS-T for 1 h at RT, washed, and then incubated with primary antibody diluted in PBS-T supplemented with 0.1% NaN3 overnight at 4 °C. Membranes were incubated with fluorophore-conjugated secondary antibodies, Alexa Fluor 680 anti-rabbit IgG (Life Technologies, A21109), Alexa Fluor 750 anti-mouse IgG (Life Technologies, A21037) diluted 1:5000 in 2% milk PBS-T, washed and imaged with an Odyssey imager (Licor).
# HAP1 cell lines = experiment: TH1760/6-TG cell viability assay in HAP1 cell lines; type: cell-based, human; conditions: 72 h
# Description: After 72 h incubation, cell viability was measured using the CellTiter-Glo assay (Promega). Signals were normalized to the control condition.
# [4] = read-out: EC50 (nM) TE (4h), Supplementary Table 3
# [5] = read-out: EC50 (µM), TE 4h, Supplementary Table 1
# Chain of NUDT5 and the respective E3 ligase (P40337 whole entry, one chain of several): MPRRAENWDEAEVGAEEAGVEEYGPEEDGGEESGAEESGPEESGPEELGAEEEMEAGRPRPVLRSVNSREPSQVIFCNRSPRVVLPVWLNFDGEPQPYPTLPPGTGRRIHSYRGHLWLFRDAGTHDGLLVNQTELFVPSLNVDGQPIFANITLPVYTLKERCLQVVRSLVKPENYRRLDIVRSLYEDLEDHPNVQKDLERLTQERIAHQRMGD
SMILES,Ternary complex formation below 1 µM (4 h) ([1]; Supplementary Table 2),Ternary complex formation below 1 µM (20 h) ([1]; Supplementary Table 2),Ternary complex formation below 1 µM (20 h) ([1]; Supplementary Table 3),EC50 (NUDT5 [2]; [4]),further results
Cc1ncsc1-c1ccc(CNC(=O)C2CC(O)CN2C(=O)C(NC(=O)CCOCCOCCOCCC(=O)N2CCN(c3nc4c(c(=O)n(C)c(=O)n4C)n3Cc3nnc(-c4ccc(Cl)c(Cl)c4)o3)CC2)C(C)(C)C)cc1 (stereo not shown) [ASM131],No,No,,,
Cn1c(=O)c2c(nc(N3CCN(CC4CCN(c5ccc6c(c5)C(=O)N(C5CCC(=O)NC5=O)C6=O)C4)CC3)n2Cc2nnc(-c3ccc(Cl)c(Cl)c3)o2)n(C)c1=O (stereo not shown) [ASM105],,,No,103 nM,
Cn1c(=O)c2c(nc(N3CCN(CC4CCN(c5ccc6c(c5)C(=O)N(C5CCC(=O)NC5=O)C6=O)CC4)CC3)n2Cc2nnc(-c3ccc(Cl)c(Cl)c3)o2)n(C)c1=O (stereo not shown) [ASM70],,,Yes,42 nM,
"Nc1ncnc2c1c(-c1ccc(Oc3ccccc3)cc1)nn2C1CCN(CCOCCOCC(=O)Nc2ccc3c(c2)C(=O)N(C2CCC(=O)NC2=O)C3=O)CC1 (stereo not shown) [MT-802, reference compound]",,,,,Ternary complex formation below 1 µM (20 h) ([1]; Supplementary Table 1): No; EC50 (NUDT5 [2]; [5]): 1300 nM
Cc1ncsc1-c1ccc(CNC(=O)C2CC(O)CN2C(=O)C(NC(=O)COCCOCCCCCCC(=O)N2CCCC(n3nc(-c4ccc(Oc5ccccc5)cc4)c4c(N)ncnc43)C2)C(C)(C)C)cc1 (stereo not shown) [ASM75],,,,,Ternary complex formation below 1 µM (20 h) ([1]; Supplementary Table 1): No; EC50 (NUDT5 [2]; [5]): > 10000 nM
O=C(c1ccc2[nH]ccc2c1)N1CCN(S(=O)(=O)c2ccc3[nH]c(=O)oc3c2)CC1 [TH1760],,,,,"sensitization of cells towards 6-TG (HAP1 cell lines; HAP1 WT, 6-TG 1 µM fixed): sensitized HAP1 WT cells towards 6-TG in a dose-dependent manner; effect on cell viability without 6-TG (HAP1 cell lines; HAP1 cell lines, up to 50 µM): does not affect HAP1 cell viability"
Cn1c(=O)c2c(nc(N3CCN(CCC4CCN(c5ccc6c(c5)C(=O)N(C5CCC(=O)NC5=O)C6=O)CC4)CC3)n2Cc2nnc(-c3ccc(Cl)c(Cl)c3)o2)n(C)c1=O (stereo not shown) [ASM102],,,Yes,102 nM,

# Now from value to compound, other results behind:
Ternary complex formation below 1 µM (4 h) ([1]; Supplementary Table 2),Ternary complex formation below 1 µM (20 h) ([1]; Supplementary Table 2),Ternary complex formation below 1 µM (20 h) ([1]; Supplementary Table 3),EC50 (NUDT5 [2]; [4]),SMILES,further results
Yes,Yes,,,Cn1c(=O)c2c(nc(N3CCN(C(=O)CCCCCCCCOc4cccc5c4C(=O)N(C4CCC(=O)NC4=O)C5=O)CC3)n2Cc2nnc(-c3ccc(Cl)c(Cl)c3)o2)n(C)c1=O (stereo not shown) [ASM135],
,Yes,,,Cn1c(=O)c2c(nc(N3CCN(C(=O)CCOCCOCCNc4cccc5c4C(=O)N(C4CCC(=O)NC4=O)C5=O)CC3)n2Cc2nnc(-c3ccc(Cl)c(Cl)c3)o2)n(C)c1=O (stereo not shown) [ASM68],
,Yes,,,Cn1c(=O)c2c(nc(N3CCN(C(=O)CCCNc4cccc5c4C(=O)N(C4CCC(=O)NC4=O)C5=O)CC3)n2Cc2nnc(-c3ccc(Cl)c(Cl)c3)o2)n(C)c1=O (stereo not shown) [ASM111],effect on NUDT5 protein levels (NUDT5 [3]): no significant effects on NUDT5 protein levels
Yes,Yes,,,Cn1c(=O)c2c(nc(N3CCN(C(=O)CCCCNc4cccc5c4C(=O)N(C4CCC(=O)NC4=O)C5=O)CC3)n2Cc2nnc(-c3ccc(Cl)c(Cl)c3)o2)n(C)c1=O (stereo not shown) [ASM124],
,,No,61 nM,Cn1c(=O)c2c(nc(N3CCN(CC4CCN(c5cccc6c5C(=O)N(C5CCC(=O)NC5=O)C6=O)CC4)CC3)n2Cc2nnc(-c3ccc(Cl)c(Cl)c3)o2)n(C)c1=O (stereo not shown) [ASM110],
Yes,Yes,,,Cn1c(=O)c2c(nc(N3CCN(C(=O)CCCCCCCCNc4cccc5c4C(=O)N(C4CCC(=O)NC4=O)C5=O)CC3)n2Cc2nnc(-c3ccc(Cl)c(Cl)c3)o2)n(C)c1=O (stereo not shown) [ASM133],
